Legend:
[1] = tested on: DNMT3A protein level in PC-3 cells; experiment: Western blot of DNMT3A protein in PC-3; assay type: cell-based, human; settings: 24 h; 1 μM requested for the effect
Source text: (§1) Cells were lysed in Laemmli buffer; subsequently, the proteins were resolved by sodium dodecyl sulfate-polyacrylamide gel electrophoresis and transferred to a 0.45-μm nitrocellulose membrane (Bio-Rad Laboratories, Hercules, CA). The following primary antibodies were used for immunoblotting: α-E-cadherin (BD Transduction Laboratories, Franklin Lakes, NJ), α-MMP2 (Abcam), α-DNMT3a (Santa Cruz Biotechnologies, Dallas, TX), and α-GAPDH (Millipore Corp., Bedford, MA), used as a loading control. The immune complexes were detected with horseradish peroxidase-conjugated species-specific secondary antiserum (Bio-Rad Laboratories, Milan, Italy) then by enhanced chemiluminescence reaction (Bio-Rad Laboratories, Milan, Italy). Densitometric analysis of protein expression was performed by using the Fiji ImageJ image processing package.
(§2) GAPDH was used as a loading control. Blots are representative of two independent experiments

[2] = tested on: RPMI1788 (normal B lymphocytes); experiment: Cell viability, trypan blue exclusion; assay type: cell-based; settings: Homo sapiens, RPMI-1788; 48 h of treatment; normal cells; read-out: IC50 ± SD, cell viability, RPMI1788
Method: U-937 (acute myeloid leukemia), RAJI (Burkitt’s lymphoma), PC-3 (prostate cancer), and MDA-MB-231 (breast cancer) cell lines were obtained from the Deutsche Sammlung für Mikroorganismen and Zellkulturen (DSZM, Braunschweig, Germany) and were cultured in RPMI 1640 (Lonza, Verviers, Belgium) complemented with 10% FBS (Lonza, Verviers, Belgium) and 1% antibiotic-antimycotic (Lonza). RPMI1788 (normal B lymphocytes) and KG-1 (acute myeloid leukemia) cell lines were obtained from the American Type Culture Collection (ATCC) and were maintained in RPMI 1640 complemented with 20% FBS and IMDM complemented with 10% FBS, respectively. Cell lines were treated with compounds at the indicated concentrations in the exponential growth phase.
(§3) Proliferation and viability of U-937, KG-1, RAJI, PC-3, MDA-MB-231, RPMI1788, PBMCs, and PHA_PBMCs were assessed by trypan blue exclusion assays at the indicated time points. Nuclear morphology changes associated with apoptosis and necrosis were evaluated by fluorescence microscopy after Hoechst and propidium iodide (PI) staining as previously described.
IC50 values of compounds against cellular viability were determined by using nonlinear regression fitting curves with GraphPad Prism 8 or CalcuSyn software The t test used for statistical analyses was performed with GraphPad Prism 8. […]

[3] = tested on: DNMT3A protein level in HCT116 cells; experiment: Western blot of DNMT3A protein in HCT116; assay type: cell-based, human; settings: 24 h; MC3353 effect detectable at 0.1 μM
Source text: as §1, §2

human C-terminal DNMT3A = target: T1, human C-terminal DNMT3A (Homo sapiens, UniProt Q9Y6K1); experiment: DNMT3A restriction-based fluorescence assay; assay type: biochemical
T1 construct: the C-terminal catalytic domain of human DNMT3A (hDNMT3A)
T1 sequence (Q9Y6K1 634-912 limits assumed): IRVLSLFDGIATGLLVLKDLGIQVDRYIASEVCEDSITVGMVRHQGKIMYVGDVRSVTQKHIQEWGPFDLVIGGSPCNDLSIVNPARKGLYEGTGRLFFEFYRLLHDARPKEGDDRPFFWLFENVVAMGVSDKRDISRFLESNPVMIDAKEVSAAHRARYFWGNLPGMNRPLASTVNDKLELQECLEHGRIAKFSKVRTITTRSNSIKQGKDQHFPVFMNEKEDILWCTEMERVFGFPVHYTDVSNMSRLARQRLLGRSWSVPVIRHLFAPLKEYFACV
Method: DNMT3A enzyme inhibition was adapted from the restriction-based fluorescence assay protocol described in Ceccaldi et al.. Briefly, it is performed in a 384-well microplate in a total volume of 50 μL. An oligonucleotide labeled at the 5′ end with biotin is hybridized to his complementary strand labeled at the 3′ end with 6-carboxyfluorescein. The DNA duplex thus formed contains only one single CpG site overlapping with a restriction site of a methylation sensitive restriction enzyme. The duplex is transferred in the wells coated with avidin. Thus, the duplex is fixed to the plate. The methylation reaction is performed by adding human C-terminal DNMT3A at the final concentration of 4 ng/μL in a total volume of 50 μL in the presence of the chemical compound to be tested at the desired concentration and the cofactor SAM at the final concentration of 20 μM. After incubation (1 h at 37 °C), the plate is washed and the methylation sensitive restriction enzyme HpyCH4IV is added. After 1-h incubation at 37 °C, the plate is washed and the fluorescence measured with a PerkinElmer Envision Multilabel Plate Reader (PerkinElmer, Villebon-sur-Yvette, France). The data are expressed as a percentage of inhibition vs. log concentration (M). Data are normalized referring to the “restriction control” (wells coated with labeled duplex not treated nor exposed to DNMT3A, but only cleaved by HpyCH4IV) as the maximum of inhibition (100%) and to the “DMSO control” (wells coated with labeled duplex but treated just with 0.1% DMSO exposed to DNMT3A and then to HpyCH4IV) as the minimum of inhibition (0%; total methylation).

KG-1 cells = experiment: Nuclear morphology analysis (Hoechst/PI); assay type: cell-based, human; settings: 72 h; considerable increase between 0.5 and 1 μM
Method: as §3
(§4) Fig. 6 Nuclear morphology analysis in U-937, RAJI, KG-1, and RPMI1788 cells. Cells were treated with increasing doses of MC3353. Upper panels—after 72 h of treatment, the nuclear morphology was analyzed by fluorescence microscopy after Hoechst and PI staining. Pictures are representative of three independent experiments. Lower panels—the results of cell counting are represented as the mean (± SD) of three independent experiments

U-937 cells = experiment: Nuclear morphology analysis (Hoechst/PI); assay type: cell-based, human; settings: 72 h; considerable increase between 0.5 and 1 μM
Method: as §3, §4

RAJI cells = experiment: Nuclear morphology analysis (Hoechst/PI); assay type: cell-based, human; settings: 72 h; drastic increase in cell death rate between 0.5 and 1 μM
Method: as §3, §4

## O=C(Nc1ccc(NC(=O)c2ccc(Nc3ccnc4ccccc34)cc2)cc1)OCc1ccccc1 [MC3353, Benzyl (4-(4-(quinolin-4-ylamino)benzamido)phenyl)carbamate]
[1]
  DNMT3A protein expression level (western blot), PC-3: DNMT3A protein downregulation was observed
[2]
  IC50: 2400 ± 200 nM
[3]
  DNMT3A protein expression level (western blot), HCT116: DNMT3A protein downregulation was observed
Human C-terminal DNMT3A; fluorescent assay, C-terminal catalytic domain, read-out: EC50 ± SD, hDNMT3A
  EC50: 17 ± 3 µM
Human C-terminal DNMT3A; ratio of EC50 values
  fold higher potency than RG-108 against hDNMT3A: > 29 fold
  fold lower potency than SGI-1027 against hDNMT3A: 20 fold
KG-1 cells
  cell death modality, KG-1: induced mainly apoptosis
U-937 cells
  cell death modality, U-937: induced mainly apoptosis
RAJI cells
  cell death modality, RAJI: shift from apoptosis to necrosis

— publication PMC6501426 (Clinical Epigenetics, 2019)
